The assay relates to P23H opsin. Briefly: Rhodopsin purification and regeneration (P23H cells treated with compound, regenerated with 9-cis-retinal, 480-500 nm absorbance). The note with it: for Fold Increase Over Control (480-500 nm absorbance as fold increase over the DMSO control): P23H cells, 48 hours, regeneration with 9-cis-retinal (20 μM).

Take `C[C@H]1C(=O)C=C2[C@H]1CCCC2(C)C` (racemic) [Compound 67, (±)-(1R,7aS)-1,4,4-trimethyl-5,6,7,7a-tetrahydro-1H-inden-2(4H)-one]: for the setting “compound concentration 20 μM”, the “Fold Increase Over Control (480-500 nm absorbance as fold increase over the DMSO control)” value (from here on “Fold Increase Over Control”) worked out at 1.8 fold.

For `C[C@@H]1CC(=NO)[C@H]2C(C)(C)CCC[C@@]12C` (racemic) [Compound 16, (±)-(3R,3aS,7aS)-3,3a,7,7-tetramethyloctahydro-1H-inden-1-one oxime], the “Fold Increase Over Control” value (compound concentration 20 μM) worked out at 2.2 fold. For `CC1(C)CCCC2(C)CC(=NO)C=C12` (centres unmarked) [Compound 30, 4,4,7a-trimethyl-5,6,7,7a-tetrahydro-1H-inden-2(4H)-one oxime], the “Fold Increase Over Control” value (compound concentration 10 μM) is on record as 1.8 fold. For `CC1(C)CCC[C@@]2(C)CC(=O)C[C@@H]12` (racemic) [Compound 40, (±)-(3aS,7aS)-3a,7,7-trimethylhexahydro-1H-inden-2(3H)-one], where the note is “compound concentration 10 μM”, the “Fold Increase Over Control” value came out at 1.8 fold. In the case of `CC1=C(C)[C@]2(C)CCCC(C)(C)[C@@H]2[C@H]1O` (racemic) [Compound 66, (±)-(1R,3aR,7aS)-2,3,3a,7,7-pentamethyl-3a,4,5,6,7,7a-hexahydro 1H inden-1-ol], for the setting “compound concentration 20 μM”, the “Fold Increase Over Control” value turned out to be 1.9 fold.

With `CON=C1C=C2C(C)(C)CCCC2(C)C1` (centres unmarked) [Compound 31, 4,4,7a-trimethyl-5,6,7,7a-tetrahydro-1H-inden-2(4H)-one O-methyl oxime], for the setting “compound concentration 10 μM”, the “Fold Increase Over Control” value turned out to be 1.6 fold. Turning to `CC1(C)CCC[C@@]2(C)[C@@H](O)CC[C@@H]12` (racemic) [Compound 18, (±)-(1S,3aS,7aR)-4,4,7a-trimethyloctahydro-1H-inden-1-ol], under “compound concentration 20 μM”, the “Fold Increase Over Control” value was 1.7 fold. The same measure, in the same setting: the result for `C[C@H]1C(=O)C=C2C(C)(C)CCC[C@]21C` (racemic) [Compound 20, (±)-(1R,7aS)-1,4,4,7a-tetramethyl-5,6,7,7a-tetrahydro-1H-inden-2(4H)-one] reads 1.9 fold. In the case of `CC1(C)CCC[C@@]2(C)C(C3CC3)=CC(=O)[C@@H]12` (racemic) [Compound 44, (±)-(3aR,7aS)-3-cyclopropyl-3a,7,7-trimethyl-3a,4,5,6,7,7a-hexahydro-1H-inden-1-one], the “Fold Increase Over Control” value (compound concentration 10 μM) worked out at 2.2 fold. Turning to `CON=C1C=C(C(C)C)[C@]2(C)CCCC(C)(C)[C@H]12` (racemic) [Compound 51, (±)-(3aR,7aS)-3-isopropyl-3a,7,7-trimethyl-3a,4,5,6,7,7a-hexahydro-1H-inden-1-one O-methyl oxime], for the setting “compound concentration 10 μM”, the “Fold Increase Over Control” value is 1.7 fold. Same read-out and setting: the result for `CC1(C)CCCC2=CC(=O)CC21` (centres unmarked) [Compound 27, 7,7-dimethyl-5,6,7,7a-tetrahydro-1H-inden-2(4H)-one] reads 2.0 fold. With `C[C@@H]1CC(=O)C2=CCCC(C)(C)[C@H]21` (racemic) [Compound 71, (±)-(3R,3aR)-3,4,4-trimethyl-2,3,3a,4,5,6-hexahydro-1H-inden-1-one], under “compound concentration 20 μM”, the “Fold Increase Over Control” value amounted to 2.2 fold. Turning to `CC1(C)CCC[C@@]2(C)CC(O)C[C@@H]12` (mixture of isomers) [Compound 63, (±)-(3aS,7aS)-3a,7,7-trimethyloctahydro-1H-inden-2-ol], the “Fold Increase Over Control” value (compound concentration 20 μM) worked out at 2.3 fold.

For the compound `CC(C)[C@H]1C(=O)C=C2[C@H]1CCCC2(C)C` (racemic) [Compound 61, (±)-(1R,7aS)-1-isopropyl-4,4-dimethyl-5,6,7,7a-tetrahydro-1H-inden-2(4H)-one], where the note is “compound concentration 20 μM”, the “Fold Increase Over Control” value was 1.8 fold. The same measure, in the same setting: the result for `CC1=C(C)[C@H]2[C@H](CCCC2(C)C)[C@@H]1O` (racemic) [Compound 72, (±)-(1S,3aS,7aS)-2,3,4,4-tetramethyl-3a,4,5,6,7,7a-hexahydro-1H-inden-1-ol] reads 1.9 fold. With `CC(C)C1=CC(=O)[C@H]2C(C)(C)CCC[C@@]12C` (racemic) [Compound 29, (±)-(3aR,7aS)-3-isopropyl-3a,7,7-trimethyl-3a,4,5,6,7,7a-hexahydro-1H-inden-1-one], the “Fold Increase Over Control” value (compound concentration 10 μM) came to 2.4 fold. On the same count and under the same terms, next, `CC1(C)CCCC2=C1CCC2=O` [Compound 56, 4,4-dimethyl-2,3,4,5,6,7-hexahydro-1H-inden-1-one]: 1.7 fold. Regarding `CC1(C)CCC(C)(C)[C@H]2OC(=O)C[C@H]21` (racemic) [Compound 3, (±)-(3aS,7aS)-4,4,7,7-tetramethylhexahydrobenzofuran-2(3H)-one], the “Fold Increase Over Control” value (compound concentration 20 μM) is given as 2.2 fold. Turning to `CC1(C)CCC[C@@]2(C)C(=O)CC[C@@H]12` (racemic) [Compound 5, (±)-(3aS,7aR)-4,4,7a-trimethyloctahydro-1H-inden-1-one], under “compound concentration 10 μM”, the “Fold Increase Over Control” value came out at 1.7 fold.

Take `CC1(C)CCC[C@@]2(C)CC(=NO)C[C@@H]12` (racemic) [Compound 62, (±)-(3aS,7aS)-3a,7,7-trimethylhexahydro-1H-inden-2(3H)-one oxime]: where the note is “compound concentration 20 μM”, the “Fold Increase Over Control” value turned out to be 2.3 fold. The same measure, in the same setting: next, `CN1CC2=C(C1=O)C(C)(C)CCC2` [Compound 13, 2,7,7-trimethyl-2,3,4,5,6,7-hexahydro-1H-isoindol-1-one]: 2.2 fold. For the compound `CC(C)C1=CC(=NO)[C@H]2C(C)(C)CCC[C@@]12C` (racemic) [Compound 45, (±)-(3aR,7aS)-3-isopropyl-3a,7,7-trimethyl-3a,4,5,6,7,7a-hexahydro-1H-inden-1-one oxime], where the note is “compound concentration 10 μM”, the “Fold Increase Over Control” value came to 3.0 fold. Still for that read-out and setting: next, `CC1(C)CCC[C@@]2(C)C(c3ccccc3)=CC(=O)[C@@H]12` (racemic) [Compound 28, (±)-(3aR,7aS)-3a,7,7-trimethyl-3-phenyl-3a,4,5,6,7,7a-hexahydro-1H-inden-1-one]: 1.7 fold. Still for that read-out and setting: next, `CC1(C)CCCC2CC(=O)C=C21` (centres unmarked) [Compound 53, 4,4-dimethyl-5,6,7,7a-tetrahydro-1H-inden-2(4H)-one]: 1.7 fold; `CC1(C)CCCC2CC(=NO)CC21` (centres unmarked) [Compound 55, 4,4-dimethylhexahydro-1H-inden-2(3H)-one oxime]: 2.8 fold. In the case of `CC1=C(C)[C@]2(C)CCCC(C)(C)[C@@H]2C1=O` (racemic) [Compound 65, (±)-(3aR,7aS)-2,3,3a,7,7-pentamethyl-3a,4,5,6,7,7a-hexahydro-1H-inden-1-one], the “Fold Increase Over Control” value (compound concentration 20 μM) is recorded as 1.8 fold. Regarding `CC(C)[C@@H]1CC(=O)[C@H]2C(C)(C)CCC[C@@]12C` (racemic) [Compound 46, (±)-(3S,3aS,7aS)-3-isopropyl-3a,7,7-trimethyloctahydro-1H-inden-1-one], the “Fold Increase Over Control” value (compound concentration 10 μM) is 1.8 fold. Turning to `CC(=O)/C=C/C1=C(C)CCCC1(C)C` [β-ionone, reference compound], the “regeneration of 500 nm absorbing pigment upon treatment with retinal” value (FIG. 1, P23H opsin treated with 20 µM during mutant protein production, relative to vehicle (DMSO) alone) is “increase”. Besides, under “compound concentration 20 μM”, the “Fold Increase Over Control” value was 2.4 fold. As to `CC1(C)CCC(C)(C)C2CC(=O)C=C21` (single isomer, unassigned) [Compound 69b, (−)-4,4,7,7-tetramethyl-5,6,7,7a-tetrahydro-1H-inden-2(4H)-one], the “Fold Increase Over Control” value (compound concentration 20 μM) is listed as 1.8 fold. The same measure, in the same setting: the result for `CC1=C(C)[C@H]2[C@H](CCCC2(C)C)C1=O` (racemic) [Compound 64, (±)-(3aS,7aS)-2,3,4,4-tetramethyl-3a,4,5,6,7,7a-hexahydro-1H-inden-1-one] reads 2.1 fold; that for `COC(=O)C1=C[C@]2(C)CCCC(C)(C)[C@@H]2C1` (racemic) [Compound 8, (±)-(3aS,7aS)-methyl 3a,7,7-trimethyl-3a,4,5,6,7,7a-hexahydro-1H-indene-2-carboxylate], 2.1 fold. Consider `CC1(C)CCC[C@@]2(C)C=C[C@@H](O)[C@@H]12` (racemic) [Compound 37, (±)-(1R,3aS,7aS)-3a,7,7-trimethyl-3a,4,5,6,7,7a-hexahydro-1H-inden-1-ol], for which the “Fold Increase Over Control” value (compound concentration 10 μM) was determined as 1.8 fold.

Take `CCC1=CC(=O)[C@H]2C(C)(C)CCC[C@@]12C` (racemic) [Compound 34, (±)-(3aR,7aS)-3-ethyl-3a,7,7-trimethyl-3a,4,5,6,7,7a-hexahydro-1H-inden-1-one]: the “Fold Increase Over Control” value (compound concentration 10 μM) turned out to be 2.2 fold. The same measure, in the same setting: the result for `CC1(C)CCC(C)(C)C2CC(=O)C=C21` (centres unmarked) [Compound 41, 4,4,7,7-tetramethyl-5,6,7,7a-tetrahydro-1H-inden-2(4H)-one] reads 1.9 fold; that for `CC1=CC(=O)[C@H]2C(C)(C)CCC[C@@]12C` (racemic) [Compound 1, (±)-(3aR,7aS)-3,3a,7,7-tetramethyl-3a,4,5,6,7,7a-hexahydro-1H-inden-1-one], 1.7 fold. `CC1(C)CCC[C@@]2(C)CC(CO)C[C@@H]12` (mixture of isomers) [Compound 26, (±)-((3aS,7aS)-3a,7,7-trimethyloctahydro-1H-inden-2-yl)methanol]: the “Fold Increase Over Control” value (compound concentration 20 μM) stood at 2.3 fold. Same read-out and setting: the result for `CC1(C)CCC[C@@]2(C)CC[C@H](O)[C@@H]12` (racemic) [Compound 60, (±)-(1S,3aS,7aS)-3a,7,7-trimethyloctahydro-1H-inden-1-ol] reads 2.1 fold.

The values are drawn from patent US9499464B2, “Opsin-binding ligands, compositions and methods of use” (priority 2011, dated 2016).
